{"source": "patent US20210299657A1", "about": "“Method for Development of Microfluidic Assay Device Prototype” (University of Manitoba, priority 2018, published 2021)", "key": {"[1]": {"system": "endogenous HMGA2 protein levels in MDA-MB-231 cells", "experiment": "Western blot analysis of HMGA2 protein in MDA-MB-231 cells", "format": "cell-based, human", "settings": "72 h of treatment; for endogenous HMGA2 protein levels: 10 and 20 μM", "text": "(§1) Interleukin-8 (IL8) (R&D systems, Minneapolis, USA), N-Formylmethionyl-leucyl-phenylalanine (fMLP) (Sigma, Oakville, Canada) and epidermal growth factor (EGF) (Bachem, Torrance, USA) were used as the chemoattractant for neutrophils and breast cancer cells, respectively, in the radial microfluidic chip. Neutrophils were isolated from blood of healthy donors using a negative magnetic isolation kit (STEMCELL, Vancouver, Canada). The human breast cancer cell lines MDA-MB-231 and MCF-7 were obtained from ATCC and cultured in DMEM/F12 plus 5% FBS. MDA-MB-231 cells containing a pcDNA3 human full-size HMGA2 expression construct or an empty vector control, as well as HMGA2-knockout MDA-MB-231 cells transduced with a specific lentiviral CRISPR/Cas9 construct (pLV-U6g-EPCG-HMGA2, HS0000278246; Sigma, Oakville, Canada), were cultured with DMEM/F12 medium plus 5% FBS. We employed a rabbit polyclonal anti-HMGA2 antibody (Cell Signalling Technologies, Whitby, Canada) in Western blot analysis to identify MDA-MB-231 clones with homozygous deletion of HMGA2. The small molecule Lin28 inhibitor 1632 (R&D Systems, Minneapolis, USA) was used at 10 and 20 μM to down-regulate endogenous HMGA2 in MDA-MB-231 cells.\nTo test this hypothesis and further characterize the role of HMGA2 in chemotaxis of MDA-MB-231, we opted for a pharmacological (LIN28 inhibitor 1632) and CRISPR/Cas9 mediated HMGA2 knockout strategy (FIG. 4B-C). […] Next, we treated MDA-MB-231 with a specific CRISPR/Cas9 lentiviral construct and the homozygous loss of HMGA2 expression in MDA-MB-231 HMGA2 knockout (KO) cells was confirmed by Western blot analysis (FIG. 6C). When exposed to a 100 ng/mL EGF gradient in the radial microfluidic chemotaxis assays, we observed a marked reduction in migration distance in MDA-MB-231 KO clones when compared to parental MDA-MB-231 (FIG. 7C). […] This novel higher throughput device may be a valuable new tool to excel the search for new therapeutic drugs and small molecules that can mitigate chemotaxis in inflammatory and tumor cells. […]"}, "[2]": {"system": "MDA-MB-231 breast cancer cells", "experiment": "Radial microfluidic chemotaxis assay, MDA-MB-231 cells (migration distance)", "format": "cell-based, human", "settings": "for chemotaxis response (migration distance) to the EGF gradient after inhibitor treatment: MDA-MB-231 cells with reduced HMGA2 levels after LIN28 inhibitor, 6 h migration", "text": "(§2) The device pattern was designed using AUTOCAD and printed on a transparent film at high resolution. The SU-8 device master was fabricated on a 3-inch silicon wafer by a two-layer photolithography (10). The first layer defines the cell docking structure that is used to align the cells to one side of the gradient channel prior to migration (FIG. 2). Its thickness should be cell specific, with it being slightly lower than the cell size but not be too low to prevent the cells from crossing, as described herein. We chose ˜2.5 μm for neutrophils and ˜7 μm for breast cancer cells. The Polydimethylsiloxane (PDMS) (Sylgard 184; Dow Corning, Midland, USA) device was fabricated using soft-lithography. Inlets (6 mm diameter), outlets (4 mm diameter), and the cell loading port (2 mm diameter) were punched. The PDMS replica was bonded to a glass slide to seal the channels after plasma treatment. The device channels were coated using rat tail collagen type I (3.8 μg/mL; Advanced BioMatrix, San Diego, USA) for one hour and then blocked by 0.4% BSA in RPMI medium for another hour before the migration experiment.\n(§3) Two microliters of cell suspension were added to the cell loading port of each unit. When the cells had collected in the docking area, chemoattractant solution and migration medium were added to the corresponding inlets (FIG. 2). We used 100 nM IL-8 and 100 nM fMLP dissolved in RPMI-1640 with 0.4% BSA neutrophils. For the migration studies with the human breast cancer cells, EGF (10 ng/ml, 50 ng/ml, 100 ng/ml, 200 ng/ml) dissolved in DMEM/ F-12 plus 1% FBS served as chemoattractant.\n(§4) To characterize proper gradient generation, FITC-dextran (10 kD; Sigma, Oakville, Canada) was added to the solution containing the chemoattractant and fluorescent images were captured using an inverted fluorescent microscope (Ti-U; Nikon, Mississauga, Canada). Upon adding the chemoattractant solution, the inlets were covered and connected with silicone oil (A12728-22, density=0.963 g/ml; Alfa Aesar, Tewksbury, USA) to balance the pressure difference between the two inlets (FIG. 3A). The microscope stage was enclosed by an environmental control chamber to maintain the temperature at 37° C. during the cell migration experiments. Time-lapse images (10 sec intervals for neutrophils and 3 min intervals for the breast cancer cells) recorded cell migration. The faster migration of neutrophils was recorded for 20 minutes, whereas migration of the breast cancer cells was monitored for 6 hours.\nCell migration and chemotaxis were quantified by calculating the migration distance the cells moved away from the docking site. For MDA-MB-231 experiments, trajectories of representative cells were tracked by manual tracking method using ImageJ. The migration angle ϕ is defined as the angle of the cell displacement vector in relation to the direction of the gradient and was calculated in 12 min intervals. The cosine of ϕ was used to indicate the directionality of cell migration relative to the gradient: 1 indicates cell migration perfectly along the gradient direction; −1 indicates cell migration along the opposite direction of the gradient; a value between 1 and −1 indicates the level of deviation of cell migration from the gradient direction. The cell shape was outlined using ImageJ. Each condition was repeated in at least three independent experiments. For statistical analysis, the two-sample Student's t-test was used to compare different conditions using OriginPro. P<0.05 was considered statistically significant and indicated by an asterisk."}, "human blood neutrophils": {"system": "human blood neutrophils", "experiment": "Radial microfluidic chemotaxis assay, neutrophils (migration distance)", "format": "cell-based", "settings": "for neutrophil chemotaxis: 100 nM gradient, 20-minute migration experiment", "text": "as §2\nTwo microliters of cell suspension were added to the cell loading port of each unit. […]\nTo characterize proper gradient generation, FITC-dextran (10 kD; Sigma, Oakville, Canada) was added to the solution containing the chemoattractant and fluorescent images were captured using an inverted fluorescent microscope (Ti-U; Nikon, Mississauga, Canada). […] Time-lapse images (10 sec intervals for neutrophils and 3 min intervals for the breast cancer cells) recorded cell migration. The faster migration of neutrophils was recorded for 20 minutes, whereas migration of the breast cancer cells was monitored for 6 hours.\n(§5) Cell migration and chemotaxis were quantified by calculating the migration distance the cells moved away from the docking site. […] The migration angle ϕ is defined as the angle of the cell displacement vector in relation to the direction of the gradient and was calculated in 12 min intervals. […]"}, "[3]": {"system": "HMGA2 over-expressing and mock MDA-MB-231 stable transfectants", "experiment": "Radial microfluidic chemotaxis assay, HMGA2 over-expressing and mock MDA-MB-231 stable transfectants", "format": "cell-based, human", "text": "as §1, §3\nas §4, with “The microscope stage was enclosed by an environmental control chamber to maintain the temperature at 37° C. during the cell migration experiments.” left out\nas §5"}}}
{"molecule": "CC(=O)N(C)c1cccc(-c2ccc3nnc(C)n3n2)c1", "note": "[LIN28 inhibitor 1632]", "values": [{"measurement": "presence of HMGA2 protein", "setting": "[1]; 20 μM", "value": "almost completely abolished the presence of HMGA2"}, {"measurement": "endogenous HMGA2 protein levels", "setting": "[1]", "value": "down-regulated endogenous HMGA2 protein levels"}, {"measurement": "endogenous HMGA2 protein levels", "setting": "[1]; listed as LIN28 inhibitor", "value": "verifiable reduction of endogenous HMGA2 levels"}, {"measurement": "chemotaxis response (migration distance) to the EGF gradient after inhibitor treatment", "setting": "[2]", "value": "markedly reduced migratory behavior"}, {"measurement": "chemotaxis response (migration distance) to the EGF gradient after inhibitor treatment", "setting": "[2]; listed as 1632", "value": "markedly reduced chemotaxis"}, {"measurement": "chemotaxis response (migration distance) to the EGF gradient after inhibitor treatment", "setting": "[2]; listed as LIN28 inhibitor", "value": "significant reduction in chemotaxis response to the EGF gradient"}]}
{"molecule": "CSCC[C@H](NC=O)C(=O)N[C@@H](CC(C)C)C(=O)N[C@@H](Cc1ccccc1)C(=O)O", "note": "[fMLP, N-Formylmethionyl-leucyl-phenylalanine]", "values": [{"measurement": "chemotaxis response with the fMLP gradient relative to the IL-8 gradient", "setting": "human blood neutrophils; 100 nM fMLP gradient vs 100 nM IL-8 gradient, 20 minutes", "value": "more than 3 fold"}, {"measurement": "neutrophil chemotaxis", "setting": "human blood neutrophils", "value": "stimulated neutrophil chemotaxis"}]}
{"molecule": "EGF: epidermal growth factor (Bachem), chemoattractant for breast cancer cells (NSDSECPLSHDGYCLHDGVCMYIEALDKYACNCVVGYIGERCQYRDLKWWELR; Epidermal growth factor; UniProt P01133 971-1023, looked up)", "values": [{"measurement": "migration of MDA-MB-231 cells in EGF gradient", "setting": "[2]; 200, 100, and 50 ng/ml EGF gradient", "value": "optimal and comparable migration"}, {"measurement": "directional migration of MDA-MB-231 cells in EGF gradient", "setting": "[2]; EGF 10 ng/ml gradient, compared with higher EGF concentrations", "value": "directional migration decreased significantly"}, {"measurement": "migration of MDA-MB-231 cells in EGF gradient", "setting": "[2]; EGF gradient 100 ng/mL, 6 h", "value": "actively migrated out of the docking structure towards the EGF gradient"}, {"measurement": "directional migration of MDA-MB-231 cells, low input EGF gradient", "setting": "[2]; gradient with input EGF concentration 10 ng/mL", "value": "significantly increase directional migration"}, {"measurement": "migration of MDA-MB-231 cells in uniform EGF field", "setting": "[2]; uniform field of EGF 100 ng/mL, 6 h", "value": "remained stationary in the docking structure and failed to show a chemotaxis response"}, {"measurement": "migration of transfectants at lowest EGF gradient vs uniform field or medium", "setting": "[3]; EGF gradient 10 ng/mL vs uniform EGF field 50 ng/mL or normal medium", "value": "significantly stronger migration"}, {"measurement": "migration distance of transfectants from the docking site, lowest EGF gradient", "setting": "[3]; EGF gradient 10 ng/mL, compared with the other EGF gradients", "value": "migrate the shortest distance"}, {"measurement": "migration of transfectants in EGF gradients", "setting": "[3]; EGF gradients 200, 100, 50 and 10 ng/mL, 6 h", "value": "enhanced and directional migration with all EGF gradients tested"}, {"measurement": "migration of transfectants in uniform EGF field", "setting": "[3]; uniform EGF field 50 ng/mL, 6 h", "value": "such migratory behaviour was absent"}]}
{"molecule": "IL-8: Interleukin-8 (R&D systems), chemoattractant for neutrophils", "values": [{"measurement": "neutrophil chemotaxis", "setting": "human blood neutrophils", "value": "stimulated neutrophil chemotaxis"}]}
